Source: PubChem BioAssay (NCI)
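Where inhibition never reached the appropriate level, the endpoint shown equals the highest concentration tested. Otherwise, values were interpolated linearly from a five-concentration, 48-hour dose response in 96-well plates. TGI is the concentration that stops growth completely.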

Key:
Assay in all cases: inhibition of tumour cell growth, NCI panel, 48 h
EKVX NSCLC = system: EKVX NSCLC
HOP-92 NSCLC = system: HOP-92 NSCLC
RPMI-8226 leukemia = system: RPMI-8226 leukemia
SK-MEL-28 melanoma = system: SK-MEL-28 melanoma
IGROV1 ovarian = system: IGROV1 ovarian
NCI-H23 lung = system: NCI-H23 lung
OVCAR-4 ovarian = system: OVCAR-4 ovarian
SW-620 colon = system: SW-620 colon
UO-31 renal = system: UO-31 renal
SF-295 CNS = system: SF-295 CNS
NCI/ADR-RES ovarian = system: NCI/ADR-RES ovarian
SF-268 CNS = system: SF-268 CNS
786-0 renal = system: 786-0 renal
CCRF-CEM leukemia = system: CCRF-CEM leukemia
NCI-H460 lung = system: NCI-H460 lung
SF-539 CNS = system: SF-539 CNS
NCI-H226 lung = system: NCI-H226 lung
SK-MEL-2 melanoma = system: SK-MEL-2 melanoma
OVCAR-8 ovarian = system: OVCAR-8 ovarian
HT29 colon = system: HT29 colon
OVCAR-5 ovarian = system: OVCAR-5 ovarian
MALME-3M melanoma = system: MALME-3M melanoma
MOLT-4 leukemia = system: MOLT-4 leukemia
CAKI-1 renal = system: CAKI-1 renal
SNB-19 CNS = system: SNB-19 CNS
BT-549 breast = system: BT-549 breast
RXF 393 renal = system: RXF 393 renal
M14 melanoma = system: M14 melanoma
PC-3 prostate = system: PC-3 prostate
KM12 colon = system: KM12 colon
SK-OV-3 ovarian = system: SK-OV-3 ovarian
COLO 205 colon = system: COLO 205 colon
SK-MEL-5 melanoma = system: SK-MEL-5 melanoma
LOX IMVI melanoma = system: LOX IMVI melanoma
A549 NSCLC = system: A549 NSCLC
U251 CNS = system: U251 CNS
HL-60(TB) leukemia = system: HL-60(TB) leukemia
K-562 leukemia = system: K-562 leukemia
DU-145 prostate = system: DU-145 prostate
OVCAR-3 ovarian = system: OVCAR-3 ovarian
ACHN renal = system: ACHN renal
HCC-2998 colon = system: HCC-2998 colon
SR leukemia = system: SR leukemia
TK-10 renal = system: TK-10 renal
A498 renal = system: A498 renal
UACC-62 melanoma = system: UACC-62 melanoma
HCT-15 colon = system: HCT-15 colon
MDA-MB-435 = system: MDA-MB-435
UACC-257 melanoma = system: UACC-257 melanoma
NCI-H522 lung = system: NCI-H522 lung
SNB-75 CNS = system: SNB-75 CNS
HS 578T breast = system: HS 578T breast
MDA-MB-231 breast = system: MDA-MB-231 breast
MDA-N = system: MDA-N
HCT-116 colon = system: HCT-116 colon
SN12C renal = system: SN12C renal
T-47D breast = system: T-47D breast
HOP-62 NSCLC = system: HOP-62 NSCLC
MCF7 breast = system: MCF7 breast

COC(=O)C1=C(O)CCCC(CCC(C)=O)=C1
TGI (EKVX NSCLC): > 100 µM | TGI (HOP-92 NSCLC): 95.7 µM | TGI (RPMI-8226 leukemia): > 100 µM | TGI (SK-MEL-28 melanoma): > 100 µM | TGI (IGROV1 ovarian): > 100 µM | TGI (NCI-H23 lung): > 100 µM | TGI (OVCAR-4 ovarian): > 100 µM | TGI (SW-620 colon): > 100 µM | TGI (UO-31 renal): > 100 µM | TGI (SF-295 CNS): > 100 µM | TGI (NCI/ADR-RES ovarian): > 100 µM | TGI (SF-268 CNS): > 100 µM | TGI (786-0 renal): 77.3 µM | TGI (CCRF-CEM leukemia): 25.2 µM | TGI (NCI-H460 lung): > 100 µM | TGI (SF-539 CNS): 61.1 µM | TGI (NCI-H226 lung): > 100 µM | TGI (SK-MEL-2 melanoma): > 100 µM | TGI (OVCAR-8 ovarian): > 100 µM | TGI (HT29 colon): > 100 µM | TGI (OVCAR-5 ovarian): > 100 µM | TGI (MALME-3M melanoma): > 100 µM | TGI (MOLT-4 leukemia): > 100 µM | TGI (CAKI-1 renal): > 100 µM | TGI (SNB-19 CNS): > 100 µM | TGI (BT-549 breast): > 100 µM | TGI (RXF 393 renal): > 100 µM | TGI (M14 melanoma): > 100 µM | TGI (PC-3 prostate): > 100 µM | TGI (KM12 colon): > 100 µM | TGI (SK-OV-3 ovarian): > 100 µM | TGI (COLO 205 colon): 55.2 µM | TGI (SK-MEL-5 melanoma): > 100 µM | TGI (LOX IMVI melanoma): > 100 µM | TGI (A549 NSCLC): > 100 µM | TGI (U251 CNS): > 100 µM | TGI (HL-60(TB) leukemia): 43.8 µM | TGI (K-562 leukemia): > 100 µM | TGI (DU-145 prostate): > 100 µM | TGI (OVCAR-3 ovarian): > 100 µM | TGI (ACHN renal): > 100 µM | TGI (HCC-2998 colon): > 100 µM | TGI (SR leukemia): 66 µM | TGI (TK-10 renal): > 100 µM | TGI (A498 renal): > 100 µM | TGI (UACC-62 melanoma): > 100 µM | TGI (HCT-15 colon): > 100 µM | TGI (MDA-MB-435): > 100 µM | TGI (UACC-257 melanoma): > 100 µM | TGI (NCI-H522 lung): 31.1 µM | TGI (SNB-75 CNS): > 100 µM | TGI (HS 578T breast): > 100 µM | TGI (MDA-MB-231 breast): > 100 µM | TGI (MDA-N): > 100 µM | TGI (HCT-116 colon): 36.1 µM | TGI (SN12C renal): > 100 µM | TGI (T-47D breast): > 100 µM

COC1C(O)C(C)OC(OC2CC3CCC4C(CCC5(C)C(C6=CC(=O)OC6)CCC45O)C3(O)C(OC(C)=O)C2)C1O (centres undefined)
TGI (EKVX NSCLC): 3.14 µM | TGI (HOP-92 NSCLC): 11.6 µM | TGI (RPMI-8226 leukemia): 7.55 µM | TGI (SK-MEL-28 melanoma): > 37.6 µM | TGI (IGROV1 ovarian): 15.7 µM | TGI (NCI-H23 lung): 2.61 µM | TGI (OVCAR-4 ovarian): 17.1 µM | TGI (SW-620 colon): > 36.7 µM | TGI (UO-31 renal): 4.51 µM | TGI (SF-295 CNS): 8.57 µM | TGI (NCI/ADR-RES ovarian): 6.32 µM | TGI (SF-268 CNS): 2.54 µM | TGI (786-0 renal): > 100 µM | TGI (CCRF-CEM leukemia): > 100 µM | TGI (NCI-H460 lung): 2.74 µM | TGI (SF-539 CNS): 1.95 µM | TGI (NCI-H226 lung): 10.3 µM | TGI (SK-MEL-2 melanoma): 10.1 µM | TGI (OVCAR-8 ovarian): 5.35 µM | TGI (HT29 colon): 12.7 µM | TGI (OVCAR-5 ovarian): 5.87 µM | TGI (MALME-3M melanoma): 3.74 µM | TGI (CAKI-1 renal): 3.43 µM | TGI (SNB-19 CNS): 14.9 µM | TGI (BT-549 breast): 2.02 µM | TGI (RXF 393 renal): 1.32 µM | TGI (M14 melanoma): 5.5 µM | TGI (PC-3 prostate): 8.77 µM | TGI (KM12 colon): > 48.8 µM | TGI (SK-OV-3 ovarian): 6.82 µM | TGI (COLO 205 colon): 8.48 µM | TGI (SK-MEL-5 melanoma): 2.03 µM | TGI (LOX IMVI melanoma): 4.7 µM | TGI (A549 NSCLC): 1.41 µM | TGI (U251 CNS): > 24.2 µM | TGI (HL-60(TB) leukemia): 4.23 µM | TGI (K-562 leukemia): > 100 µM | TGI (DU-145 prostate): 1.65 µM | TGI (HOP-62 NSCLC): 2.59 µM | TGI (OVCAR-3 ovarian): 3.38 µM | TGI (ACHN renal): 2.13 µM | TGI (HCC-2998 colon): 13 µM | TGI (TK-10 renal): 6.8 µM | TGI (A498 renal): 3.5 µM | TGI (UACC-62 melanoma): 5.92 µM | TGI (HCT-15 colon): 5.41 µM | TGI (MDA-MB-435): 10.5 µM | TGI (UACC-257 melanoma): 16.5 µM | TGI (NCI-H522 lung): 3.21 µM | TGI (SNB-75 CNS): > 31.2 µM | TGI (HS 578T breast): > 100 µM | TGI (MDA-MB-231 breast): 97.3 µM | TGI (MDA-N): 5.05 µM | TGI (HCT-116 colon): 4.75 µM | TGI (SN12C renal): 2.6 µM | TGI (T-47D breast): 12.7 µM

COc1ccc(N=Nc2ccc3oc(=O)c(C(=O)Nc4ccc(Cl)cc4)cc3c2)cc1
TGI (EKVX NSCLC): > 10 µM | TGI (HOP-92 NSCLC): > 10 µM | TGI (RPMI-8226 leukemia): > 10 µM | TGI (SK-MEL-28 melanoma): > 10 µM | TGI (IGROV1 ovarian): > 10 µM | TGI (NCI-H23 lung): > 10 µM | TGI (OVCAR-4 ovarian): > 10 µM | TGI (SW-620 colon): > 10 µM | TGI (UO-31 renal): > 10 µM | TGI (SF-295 CNS): > 10 µM | TGI (NCI/ADR-RES ovarian): > 10 µM | TGI (SF-268 CNS): > 10 µM | TGI (786-0 renal): > 10 µM | TGI (NCI-H460 lung): > 10 µM | TGI (SF-539 CNS): > 10 µM | TGI (NCI-H226 lung): > 10 µM | TGI (SK-MEL-2 melanoma): > 10 µM | TGI (OVCAR-8 ovarian): > 10 µM | TGI (HT29 colon): > 10 µM | TGI (OVCAR-5 ovarian): > 10 µM | TGI (MALME-3M melanoma): > 10 µM | TGI (MOLT-4 leukemia): > 10 µM | TGI (CAKI-1 renal): > 10 µM | TGI (RXF 393 renal): > 10 µM | TGI (M14 melanoma): > 10 µM | TGI (PC-3 prostate): > 10 µM | TGI (KM12 colon): > 10 µM | TGI (SK-OV-3 ovarian): > 10 µM | TGI (COLO 205 colon): > 10 µM | TGI (MCF7 breast): > 10 µM | TGI (SK-MEL-5 melanoma): > 10 µM | TGI (LOX IMVI melanoma): > 10 µM | TGI (U251 CNS): > 10 µM | TGI (DU-145 prostate): > 10 µM | TGI (HOP-62 NSCLC): > 10 µM | TGI (OVCAR-3 ovarian): > 10 µM | TGI (ACHN renal): > 10 µM | TGI (HCC-2998 colon): > 10 µM | TGI (SR leukemia): > 10 µM | TGI (TK-10 renal): > 10 µM | TGI (A498 renal): > 10 µM | TGI (HCT-15 colon): > 10 µM | TGI (MDA-MB-435): > 10 µM | TGI (UACC-257 melanoma): > 10 µM | TGI (NCI-H522 lung): > 10 µM | TGI (SNB-75 CNS): > 10 µM | TGI (HS 578T breast): > 10 µM | TGI (MDA-MB-231 breast): > 10 µM | TGI (MDA-N): > 10 µM | TGI (SN12C renal): > 10 µM | TGI (T-47D breast): > 10 µM
